Values quoted from earlier work in patent publication US20250381197A1, “Regimen for Treating Amyotrophic Lateral Sclerosis Having Onset 24 Months Prior to Treatment” (Woolsey Pharmaceuticals, Inc., priority 2022, published 2025).
Like-named read-outs stand apart in the source and are kept apart here.

Assays:
[1] = tested on: human ALS patients; conditions: 30 mg intravenously twice daily over 20 consecutive working days; 3 patients; cited from earlier work
[2] = tested on: ALS patients; conditions: 6-month study; ALS onset between 3 and 36 months; 30 mg twice a day; cited from earlier work
[3] = tested on: ALS patients; conditions: cited from earlier work
[4] = 1-hydroxy (M3) metabolite; cited from earlier work

Question: For `Cl.O=S(=O)(c1cccc2cnccc12)N1CCCNCC1` [Fasudil, Hexahydro-1-(5-isoquinolinesulfonyl)-1H-1,4-diazepine monohydrochloride hemihydrate], which “outcome of compassionate use” value [1] is on record?
Answer: no conclusive results beyond safety

Question: What about the disease modification [2] of the same compound?
Answer: did not result in any disease modification

Question: What does the source list for `CC1=NN(c2ccccc2)C(=O)C1` [edaravone]?
Answer: primary endpoint ([3]; enrollment narrowed to patients diagnosed two years or less (Tanaka 2016a)): met the primary endpoint; primary endpoint ([3]; enrollment of three years or less (Abe 2017)): did not meet the primary endpoint; treatment effect between placebo and edaravone ([3]; severe ALS patients, disease onset of less than three years (Tanaka 2016b)): failed to demonstrate any treatment effect

Question: With `O=S(=O)(c1cccc2c(O)nccc12)N1CCCNCC1` [M3] as the compound, how does the half-life [4] read?
Answer: about 8 hours
